Where a name gives a salt, the structure may show the parent alone.
Columns and labels:
[1] = First crossover study: absorption of phenylephrine, PE HCl alone vs Maxigesic PE (28 adult subjects); format: in vivo; settings: human, 10 mg; phenylephrine in blood plasma, mean, oral tablets, n = 28 adult humans
[2] = Third cross-over study: Maxiclear PE 2.5 (two tablets) vs Sudafed PE (6 adult subjects); format: in vivo; settings: human, oral, 10 mg; phenylephrine in plasma, mean, untransformed data, n = 6 adult humans

## CNC[C@H](O)c1cccc(O)c1 [10 mg phenylephrine hydrochloride, phenylephrine hydrochloride]
[1]
  Cmax: 0.874 ng/mL
  Tmax: 42 min
[2]
  Cmax: 1.13 ng/mL
  Tmax: 42 min

Source: patent US20170087104A1, “MEDICAMENT” (AFT Pharmaceuticals Ltd., priority 2013, published 2017)
